Results: patent US12569434B2, “Formulations of Nebivolol” (EXTROVIS AG, priority 2020, dated 2026)

What was measured:
[1] = format: physicochemical; details: open air exposure, 50° C. for 2 Weeks and 40° C./7.5% RH for 1 month
Procedure: Drug-Excipient compatibility study was carried with excipients such as mannitol, maltitol, dextrates, povidone, methyl paraben, propyl paraben, citric acid, sodium citrate, sodium saccharin. The study was carried out in clear glass vials with open air exposure at stress conditions 50° C. for 2 Weeks and 40° C./[…] (relative humidity) for 1 month.

[2] = format: physicochemical; details: solution in propylene glycol, pH 3 to 7, 50° C. for 1M and 40° C./75% RH for 6M
Procedure: To evaluate the stability of Nebivolol in suitable liquid vehicle or solubilizer at different pH conditions, pH stability study was performed using 0.1N HCL/0.1N NaOH for pH adjustment. Propylene glycol was used as solubilizer to dissolve Nebivolol to prepare the stock solution. The stock solution was added to water and adjusted the pH with 0.1N HCL/0.1N NaOH at different pH ranging from 3 to 7.

Structure (SMILES): Cl.OC(CNCC(O)C1CCc2cc(F)ccc2O1)C1CCc2cc(F)ccc2O1 (racemic) [Nebivolol HCl, (1RS,1′RS)-1,1′-[(2RS,2′SR)-bis(6-fluoro-3,4-dihydro-2H-1-benzopyran-2-yl)]-2,2′-iminodiethanol hydrochloride]
- Stability of Nebivolol with excipients [1]: stable
- desfluoro impurity [1]: within the specification limits
- Stability of Nebivolol [2]: stable
- desfluoro Nebivolol impurity [2]: within the specification limits
